Assay results taken from publication PMC12373846, “Hemoglobin as a pseudoperoxidase and drug target for oxidative stress-related diseases” (Signal Transduction and Targeted Therapy, 2025).
Where two headings read alike, the source gives them in different places.

Tests used:
CAT = assay: ROS-Glo H2O2 assay with CAT; type: biochemical
Description: Hb (Sigma‒Aldrich, H7379), H2O2 (Sigma‒Aldrich, H1009), and Amplex Red reagents (Invitrogen, A12222) were obtained for the study. A 4 μM H2O2 solution was prepared in 50 mM sodium phosphate buffer (pH 7.2). Then, 49 μl of this mixture was mixed with 1 μl of the test compound in DMSO or distilled water. The mixture was combined with an assay mixture of Amplex Red reagent (20 mM stock to 0.1 mM) and HRP (200 U/ml stock to 0.2 U/ml) and added to the wells at 50 μl/well. After a 60-min incubation at 37 °C, resorufin production was quantified via a microplate fluorescence reader (SpectraMax iD5, Molecular Devices) at ex/em = 535/580 nm. The H2O2-decomposing activity was estimated via the following equation: (sample fluorescence-blank fluorescence)/(control […]-blank fluorescence) × 100. For the ROS-Glo assay, the H2O2 substrate solution and ROS-Glo detection solution were prepared according to the manufacturer’s instructions. 10 μM H2O2 and drugs were prepared as in the Amplex Red assay, with HRP, Hb, CAT, or GPx added as needed. […] Luminescence was measured via iD5 microplate readers. The H2O2-decomposing activity was estimated via the following equation: (sample luminescence-blank luminescence)/(control luminescence-blank luminescence) × 100. The U/ml was calculated on the basis of the amount of H2O2 reduced by Hb during the reaction, using μg/ml and U/mg.

fGiD mice = assay: Immunohistochemistry of hippocampal CA1, fGiD mice; type: in vivo, mouse; settings: fGiD+KDS, 3 mg/kg/day i.p. 16 days, Fig. 4e
C57BL/6 mice = assay: Blood H2O2 measurement after LPS; type: in vivo, mouse; settings: LPS 6 h + KDS12025 3 mg/kg i.p.
Description: C57BL/6 mice were intraperitoneally (i.p.) injected with lipopolysaccharide (LPS) and sacrificed at 2, 6, and 24 h post-injection. Blood was collected from the heart using a syringe pre-treated with 0.5 M EGTA to prevent coagulation. Plasma was separated by centrifuging the collected blood at 1,500 × g for 10 min at 4 °C. H2O2 levels in the plasma were quantified using the Amplex Red assay according to the manufacturer’s instructions. The H2O2 levels peaked at 6 h post-LPS injection. Subsequently, KDS12025 (3 mg/kg/day) was intraperitoneally administered concurrently with LPS at the 6 h time point, and plasma H2O2 levels were measured to assess the effect of the compound.

[1] = In vivo pharmacokinetics (IV, PO); settings: male, ICR, mouse, plasma, mice
Description: In vivo pharmacokinetic studies of KDS12025 were conducted by Medicilon (Shanghai, China). For both intravenous (IV) and oral (PO) administration, the compound was dissolved in a vehicle consisting of 10% Solutol and 90% distilled water. Male ICR mice (n = 4 per group) were fasted overnight and allowed access to food 4 h post-dosing, with water provided ad libitum. Following administration, blood samples (0.03 mL per time point) were collected via the submandibular vein. Samples were transferred to tubes containing sodium heparin and centrifuged at 6,800 x g for 6 min at 2–8 °C. Plasma was separated, transferred to Eppendorf tubes, and internal standard (IS: 10 ng/mL verapamil) was added. After vortexing for 1 min and centrifugation at 18,000 x g for 7 min, the supernatant was analyzed by liquid chromatography–tandem mass spectrometry (LC-MS/MS; TQ5500 Triple Quad, SCIEX). Pharmacokinetic parameters including area under the curve (AUC0–t and AUC0–∞), elimination half-life (t1/2), maximum plasma concentration (Cmax), and time to reach maximum concentration (Tmax) were calculated using noncompartmental analysis in Phoenix WinNonlin 7.0 (Pharsight, USA), an FDA-certified pharmacokinetic software.

mice = assay: Laser speckle contrast imaging of cerebral perfusion; type: in vivo, mouse
Description: To assess cerebral perfusion, mice were anesthetized with isoflurane (2-3% in 100% O2, maintained at 1.0%) and placed on a heating pad to maintain body temperature. Following scalp incision, the skull surface was exposed without thinning or craniotomy. LSCI was performed using a laser speckle imaging system (RWD Life Science), acquiring frames at 30 Hz. KDS12025 (0.1, 1, or 10 mg/kg/day) or saline was administered via retro-orbital injection immediately prior to imaging. Cerebral blood perfusion and vessel diameter (pipe diameter) were quantified using RWD’s proprietary LSCI analysis software. All imaging was conducted under identical illumination and acquisition parameters.

purified mouse RBCs = assay: Isolated red blood cell H2O2 assay; type: cell-based; settings: 1 µM H2O2
Description: RBCs were isolated following a modified version of the protocol described by Hanson et al. (2008). Whole blood was collected from male ICR mice (5–6 weeks old) via retro-orbital bleeding under isoflurane anesthesia. Blood was transferred using heparin-coated capillaries into EDTA-coated microcentrifuge tubes and centrifuged at 500 x g for 10 min. Plasma and buffy coat were removed, and the RBC pellet was washed three times with phosphate-buffered saline (PBS) containing 2% fetal bovine serum (FBS) to remove leukocytes and plasma components. The final RBC suspension was adjusted to 5 x 10^3 cells/µL, and cell concentration was verified using an automated hematology analyzer (Horiba Microsemi LC-662).
H2O2 was quantified using the ROS-Glo H2O2 Assay kit (Promega) according to the manufacturer’s protocol. RBCs were dispensed into white 96-well plates at a final volume 70 µL per well. KDS12025 was tested at final concentrations of 0.01, 0.1, and 1 µM, and co-treated with 1 µM H2O2. The ROS-Glo substrate was added simultaneously to all wells. Plates were incubated for 10 min at 37°C. After incubation, ROS-Glo detection reagent was added directly to each well. Plates were then incubated for 20 min at room temperature. Luminescence was measured using a microplate reader (SpectraMax) according to kit settings. Relative luminescence units (RLU) were background-subtracted and normalized to the RBC+ H2O2 only control group. All conditions were tested in triplicate. Results present the combined average of two independent experiments; each performed with the same experimental layout and controls.

| SMILES | effect on CAT activity (CAT) | mean GFAP intensity in the GFAP-positive area (fGiD mice) | plasma H2O2 level (Fig. S20r) (C57BL/6 mice) | bioavailability ([1]; 5 mg/kg IV and 30 mg/kg PO, read-out: F (bioavailability)) [%] | AUC ([1]; 5 mg/kg IV, read-out: AUCall, IV) [ng·h/mL] | half-life ([1]; 5 mg/kg IV, read-out: t1/2, IV (converted)) [min] | AUC ([1]; 30 mg/kg PO, read-out: AUCall, PO) [ng·h/mL] | Cmax ([1]; cell spans IV and PO heads, probably 30 mg/kg PO) [ng/mL] | overall cerebral perfusion (LSCI, Fig. S8f) (mice; 0.1 mpk retro-orbital) | vessel diameter (pipe diameter, Fig. S8g) (mice; 0.1 mpk retro-orbital) | overall cerebral perfusion (LSCI, Fig. S8f) (mice; 1 mpk retro-orbital) | vessel diameter (pipe diameter, Fig. S8g) (mice; 1 mpk retro-orbital) | overall cerebral perfusion (LSCI, Fig. S8f) (mice; 10 mpk retro-orbital) | vessel diameter (pipe diameter, Fig. S8g) (mice; 10 mpk retro-orbital) | H2O2 level normalized to RBC+H2O2 only (Fig. S20t) (purified mouse RBCs; 0.01 µM) | H2O2 level normalized to RBC+H2O2 only (Fig. S20t) (purified mouse RBCs; 0.1 µM) | H2O2 level normalized to RBC+H2O2 only (Fig. S20t) (purified mouse RBCs; 1 µM) |
| --- | --- | --- | --- | --- | --- | --- | --- | --- | --- | --- | --- | --- | --- | --- | --- | --- | --- |
| O=C(O)c1cc(NCCc2ccc(C(F)(F)F)cc2)ccc1O [HTPEB, 2-hydroxy-5-[2-(4-trifluoromethyl-phenyl)-ethylamino]-benzoic acid, reference compound] | did not increase | – | – | – | – | – | – | – | – | – | – | – | – | – | – | – | – |
| CNc1ccc(NCCc2ccccc2OC)cc1.Cl [KDS12025, N^1-(2-methoxyphenethyl)-N^4-methylbenzene-1,4-diamine hydrochloride salt] | – | fGcon (49.2±2.7, n=9), fGiD (82.5±3.6, n=9), fGiD+KDS (59.0±2.5, n=9) One-way ANOVA with Tukey's multiple comparisons test, F(2,24) = 33.23, p < 0.001 fGcon vs. fGiD, p < 0.01; fGcon vs. fGiD+KDS, p = 0.07; fGiD vs. fGiD+KDS12025 (0.1mpk), p = 0.01 | Control (0.3325±0.02161, n=6), LPS-6hrs (1.295±0.05323, n=6), LPS-6hrs+KDS (0.7847±0.08078, n=6) One-way ANOVA with Tukey's multiple comparisons test, F(2,15) = 70.74, p < 0.001 Control vs. LPS-6hrs, p < 0.001; Control vs. LPS-6hrs+KDS, p < 0.001; LPS-6hrs vs. LPS-6hrs+KDS, p < 0.001 | 87.4 | 687 ± 118 | 57.6 ± 5.4 | 3600 ± 662 | 2310 ± 344 | 1169±10.7 | 193±3.8 | 1205±10.4 | 200±2.3 | 1190±7.4 | 203±3.9 | 37.08±7.98 | 20.61±3.586 | 7.116±4.5 |
